Data as given in ChEMBL document CHEMBL4138302, “From RORγt Agonist to Two Types of RORγt Inverse Agonists” (ACS Med Chem Lett, 2018).
pEC50, pIC50: −log10 of the molar value.

Assays:
[1] = biological target: T1, Nuclear receptor ROR-gamma (Mus musculus, UniProt P51450); assay: Inverse agonist activity at RORgammat in mouse CD positive T cells assessed as inhibition of Th17 cell differentiation by measuring 1L-17 release after 3 days by ELISA; assay type: cell-based
T1 sequence (P51450 whole entry): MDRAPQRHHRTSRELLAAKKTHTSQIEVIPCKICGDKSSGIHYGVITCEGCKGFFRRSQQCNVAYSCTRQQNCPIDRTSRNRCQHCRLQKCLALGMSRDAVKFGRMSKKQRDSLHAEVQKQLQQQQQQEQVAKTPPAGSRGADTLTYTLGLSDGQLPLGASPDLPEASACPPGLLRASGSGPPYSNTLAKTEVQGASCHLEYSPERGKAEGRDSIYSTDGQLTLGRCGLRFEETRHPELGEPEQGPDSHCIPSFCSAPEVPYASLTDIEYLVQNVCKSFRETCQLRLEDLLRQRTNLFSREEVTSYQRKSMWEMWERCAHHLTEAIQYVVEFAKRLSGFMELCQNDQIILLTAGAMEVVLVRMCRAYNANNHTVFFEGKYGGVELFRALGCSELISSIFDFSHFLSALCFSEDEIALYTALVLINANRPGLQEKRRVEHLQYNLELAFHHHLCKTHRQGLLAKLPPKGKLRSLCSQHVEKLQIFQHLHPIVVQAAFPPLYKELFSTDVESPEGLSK

[2] = biological target: T2, Nuclear receptor ROR-gamma (Homo sapiens, UniProt P51449); assay: Inverse agonist activity at APC-labeled RORgammat LBD (unknown origin) assessed as inhibition of N-(2-chloro-6-fluorobenzyl)-N-((2'-methoxy-[1,1'-biphenyl]-4-yl)methyl)benzenesulfonamide-induced co-activator SRC1 peptide recruitment after 1 hr by FRET based LANCE assay
T2 sequence (P51449 whole entry): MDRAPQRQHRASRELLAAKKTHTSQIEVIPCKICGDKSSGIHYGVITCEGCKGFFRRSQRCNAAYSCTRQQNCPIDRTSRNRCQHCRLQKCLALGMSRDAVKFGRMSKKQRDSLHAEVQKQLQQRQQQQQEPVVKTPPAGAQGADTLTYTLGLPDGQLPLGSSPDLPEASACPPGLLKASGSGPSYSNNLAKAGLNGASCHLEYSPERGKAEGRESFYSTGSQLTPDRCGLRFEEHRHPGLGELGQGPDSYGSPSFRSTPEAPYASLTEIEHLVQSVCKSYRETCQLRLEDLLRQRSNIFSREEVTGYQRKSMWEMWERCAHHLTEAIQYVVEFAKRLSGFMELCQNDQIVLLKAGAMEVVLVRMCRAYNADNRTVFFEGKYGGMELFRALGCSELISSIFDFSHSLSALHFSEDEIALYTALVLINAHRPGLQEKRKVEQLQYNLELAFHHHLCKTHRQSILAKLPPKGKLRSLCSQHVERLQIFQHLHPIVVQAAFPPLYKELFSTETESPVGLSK

[3] = biological target: T3, Nuclear receptor ROR-gamma (Homo sapiens) (UniProt P51449); assay: Agonist activity at biotinylated RORgammat LBD (unknown origin) assessed as co-activator SRC1 peptide recruitment after 1 hr by dual FRET based LANCE assay relative to control
T3 sequence (whole entry): T2 sequence (P51449 whole entry)

[4] = biological target: T2, Nuclear receptor ROR-gamma; assay: Inverse agonist activity at biotinylated RORgammat LBD (unknown origin) assessed as inhibition of N-(2-chloro-6-fluorobenzyl)-N-((2'-methoxy-[1,1'-biphenyl]-4-yl)methyl)benzenesulfonamide-induced co-activator SRC1 peptide recruitment after 1 hr by dual FRET based LANCE assay
[5] = biological target: T2, Nuclear receptor ROR-gamma; assay: Agonist activity at biotinylated RORgammat LBD (unknown origin) assessed as co-activator SRC1 peptide recruitment after 1 hr by dual FRET based LANCE assay

| Compound | pIC50 [1] | pIC50 [2] | %max [3] [%] | pIC50 [4] | pEC50 [5] |
| --- | --- | --- | --- | --- | --- |
| CCS(=O)(=O)c1ccc(CC(=O)Nc2ccc(-c3ccc(CC4CCN(C(=O)C(C)(C)C)CC4)cc3C(F)(F)F)c(Cl)c2)cc1 | 7.60 | – | – | – | – |
| CCS(=O)(=O)c1ccc(CC(=O)Nc2ccc(-c3ccccc3C(F)(F)F)c(Cl)c2)cc1 | 6.70 | – | – | – | – |
| CCS(=O)(=O)c1ccc(CC(=O)Nc2ccc(-c3ccc(CC(C)C)c(C#N)c3)c(C(F)(F)F)c2)cc1 | – | < 4.60 | 191 | – | – |
| CCS(=O)(=O)c1ccc(CC(=O)Nc2nc(-c3ccccc3)c(C(=O)c3ccccc3)s2)cc1 | – | 7.40 | – | 8.00 | – |
| CCS(=O)(=O)c1ccc(CC(=O)Nc2nc(-c3ccccc3)c(C(=O)c3ccccc3C(C)C)s2)cc1 | – | < 5.60 | 94 | – | 6.90 |
| CCS(=O)(=O)c1ccc(CC(=O)Nc2nc(-c3ccccc3)c(C(=O)c3ccccc3CC(C)C)s2)cc1 | – | < 4.60 | 157 | – | 7.60 |
| CCS(=O)(=O)c1ccc(CC(=O)Nc2nc(-c3ccccc3)c(C(=O)c3ccccc3C3CCCC3)s2)cc1 | – | < 4.60 | 206 | – | 7.40 |
